The record followed here is patent publication US20240150377A1, “MODULATORS OF CYSTIC FIBROSIS TRANSMEMBRANE CONDUCTANCE REGULATOR” (VERTEX PHARMACEUTICALS INCORPORATED, priority 2020, published 2024).

The test deals with T1, CFTR (Homo sapiens, UniProt P13569, DEL508-508).
T1 construct: endogenous in cells; host or cells: primary human bronchial epithelial cells from CF subjects (F508del/MF-HBE), differentiated at air-liquid interface
The test can be described thus: HBE assay: Ussing chamber assay of CFTR-mediated short-circuit currents. The class given is cell-based. The note with it: for pEC50: read-out: HBE EC50. In a few lines:
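CFTR-mediated Isc (μA/cm²) equals the peak response to apical 20 μM forskolin minus the residual after a 20 μM each BPO/GlyH-101/CFTR inhibitor 172 cocktail, recorded in Ussing chambers at Vhold 0 mV, 37 °C, pH 7.4, with 30 μM apical amiloride. Cells were F508del/MF HBE cultures preincubated 18-24 h with corrector (concentration range or 10 μM) plus 1 μM ivacaftor in 20% human serum.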

The mark [1] stands for this setting: Table 12, at 10 μM, read-out: HBE Activity at 10 μM (%).
[2] abbreviates: HBE assay, read-out: HBE Max activity (%).
Where [3] appears, read: Table 11, at 10 μM, read-out: HBE Activity at 10 μM (%).
Where [4] appears, read: Table 10, read-out: HBE Max activity (%).
Setting [5] is: Table 13, at 10 μM, read-out: HBE Activity at 10 μM (%).
Where [6] appears, read: Table 11, read-out: HBE Max Activity (%).
The mark [7] stands for this setting: Table 12, read-out: HBE Max Activity (%).
The mark [8] stands for this setting: Table 10, at 10 μM, read-out: HBE activity at 10 (μM) (%).

pEC50: −log10 of the molar value. Like-named read-outs stand apart in the source and are kept apart here.

T1 sequence (P13569 with tags, fused parts or gaps DEL508-508): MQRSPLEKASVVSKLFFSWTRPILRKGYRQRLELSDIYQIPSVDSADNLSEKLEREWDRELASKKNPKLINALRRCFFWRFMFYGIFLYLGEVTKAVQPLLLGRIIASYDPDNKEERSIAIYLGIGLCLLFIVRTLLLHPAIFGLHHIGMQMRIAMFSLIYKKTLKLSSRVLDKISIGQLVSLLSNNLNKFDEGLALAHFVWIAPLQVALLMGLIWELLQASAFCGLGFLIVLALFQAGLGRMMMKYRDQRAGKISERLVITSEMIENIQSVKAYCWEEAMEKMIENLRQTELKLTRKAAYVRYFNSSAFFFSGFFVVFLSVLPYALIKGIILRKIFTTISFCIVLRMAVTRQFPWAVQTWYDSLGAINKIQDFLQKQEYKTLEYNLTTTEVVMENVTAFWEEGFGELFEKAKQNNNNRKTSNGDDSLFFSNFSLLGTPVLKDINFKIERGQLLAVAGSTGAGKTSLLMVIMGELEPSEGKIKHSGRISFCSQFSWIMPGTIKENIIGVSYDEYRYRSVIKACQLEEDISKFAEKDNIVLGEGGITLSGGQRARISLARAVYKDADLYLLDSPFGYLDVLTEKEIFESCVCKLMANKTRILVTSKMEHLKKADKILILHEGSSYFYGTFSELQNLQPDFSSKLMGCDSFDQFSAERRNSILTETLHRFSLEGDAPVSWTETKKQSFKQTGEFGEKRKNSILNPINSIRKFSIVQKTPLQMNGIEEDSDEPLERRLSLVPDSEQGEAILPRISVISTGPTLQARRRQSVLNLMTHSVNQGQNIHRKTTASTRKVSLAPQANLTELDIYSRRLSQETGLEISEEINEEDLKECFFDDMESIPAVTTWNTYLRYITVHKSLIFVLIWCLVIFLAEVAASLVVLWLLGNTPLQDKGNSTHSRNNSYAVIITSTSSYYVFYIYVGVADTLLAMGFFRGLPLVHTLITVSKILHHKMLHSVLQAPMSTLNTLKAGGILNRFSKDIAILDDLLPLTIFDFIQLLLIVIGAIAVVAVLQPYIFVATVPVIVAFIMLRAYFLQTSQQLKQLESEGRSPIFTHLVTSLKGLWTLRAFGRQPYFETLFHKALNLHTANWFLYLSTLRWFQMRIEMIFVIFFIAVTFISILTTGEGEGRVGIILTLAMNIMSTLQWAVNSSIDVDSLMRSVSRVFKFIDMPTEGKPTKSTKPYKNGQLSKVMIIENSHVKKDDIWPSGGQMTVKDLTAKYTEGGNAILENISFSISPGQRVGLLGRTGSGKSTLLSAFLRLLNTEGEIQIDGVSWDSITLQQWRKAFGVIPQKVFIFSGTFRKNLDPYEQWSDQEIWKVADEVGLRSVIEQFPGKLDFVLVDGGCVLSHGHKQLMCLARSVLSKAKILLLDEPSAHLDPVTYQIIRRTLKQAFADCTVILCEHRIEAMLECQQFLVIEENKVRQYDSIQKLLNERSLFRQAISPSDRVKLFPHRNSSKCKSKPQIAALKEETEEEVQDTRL

Turning to `Cc1cccc(C)c1-c1cc2nc(n1)NS(=O)(=O)c1cccc(c1)C(=O)N(Cc1cccc(N3CC(C(C)(C)C)CC3(C)C)n1)[C@H](CC(C)(C)C)CO2` (some centres unmarked) [Compound 877], the activation at 10 µM under setting [1] is over 600%.

Regarding `Cc1cccc(C)c1-c1cc2nc(n1)NS(=O)(=O)c1cccc(c1)C(=O)N(Cc1ncc(OC3CCC3)cc1F)[C@H](CC(C)C)CO2` [Compound 1370], for the setting “HBE assay”, the pEC50 was over 6.00. The Emax under setting [2] is over 60%.

In the case of `Cc1cccc(C)c1-c1cc2nc(n1)NS(=O)(=O)c1cccc(c1)C(=O)N(CC1OCCC1(C)C)[C@H](CC(C)(C)C)CO2` (single isomer, unassigned) [Compound 26], under setting [3], the activation at 10 µM is over 60%.

Take `Cc1cccc(C)c1-c1cc2nc(n1)NS(=O)(=O)c1cccc(c1)C(=O)N(Cc1nccc(N(C)CC(C)(C)C)c1F)[C@H](CC(C)(C)C)CO2` [Compound 1155]: the pEC50 (Table 13) is 5.52 to 6.00. The Emax (Table 13, read-out: HBE Max Activity (%)) was over 60%.

With `Cc1cccc(C)c1-c1cc2nc(n1)NS(=O)(=O)c1cccc(c1)C(=O)N(Cc1ccc(OCC(C)(C)C)cn1)[C@H](CC(C)(C)C)CO2` [Compound 768], the pEC50 (Table 10) was 5.52 to 6.00. In addition, under setting [4], the Emax is over 60%. `Cc1cccc(C)c1-c1cc2nc(n1)NS(=O)(=O)c1cccc(c1)C(=O)N(Cc1cccc(N3CCOCC(C)(C)C3)n1)[C@H](CC(C)(C)C)CO2` [Compound 1414]: the pEC50 (HBE assay) was over 6.00. The Emax under setting [2] is over 60%.

For the compound `Cc1cccc(C)c1-c1cc2nc(n1)NS(=O)(=O)c1cccc(c1)C(=O)N(Cc1ccc(C3CCOCC3)cc1F)[C@H](CC(C)(C)C)CO2` [Compound 518], under setting [5], the activation at 10 µM is over 600%. Take `Cc1cccc(C)c1-c1cc2nc(n1)NS(=O)(=O)c1cccc(c1)C(=O)N(Cc1ncc(C#N)cn1)[C@H](CC(C)(C)C)CO2` [Compound 643]: for the setting “Table 11”, the negative-log EC50 (pEC50) is over 6.00. The Emax under setting [6] was over 60%. For `CCC(C)Oc1cnc(CN2C(=O)c3cccc(c3)S(=O)(=O)Nc3nc(cc(-c4c(C)cccc4C)n3)OC[C@H]2CC(C)(C)C)nc1` (some centres unmarked) [Compound 1374], for the setting “HBE assay”, the pEC50 is over 6.00. For `Cc1cccc(C)c1-c1cc2nc(n1)NS(=O)(=O)c1cccc(c1)C(=O)N(Cc1nccc(N(C)[C@@H]3CCC34CCC4)n1)[C@H](CC(C)(C)C)CO2` [Compound 451], the pEC50 (Table 12) is over 6.00. The Emax under setting [7] is over 60%.

Regarding `Cc1cccc(C)c1-c1cc2nc(n1)NS(=O)(=O)c1cccc(c1)C(=O)N(Cc1cccc(C(C)C(C)C)n1)[C@H](CC(C)(C)C)CO2` (some centres unmarked) [Compound 871], the pEC50 (Table 12) was over 6.00. Moreover, the Emax under setting [7] is over 60%. Take `Cc1cccc(C)c1-c1cc2nc(n1)NS(=O)(=O)c1cccc(c1)C(=O)N(Cc1ncc(OC3CCCC3)cn1)[C@H](CC1CC1)CO2` [Compound 1463]: the pEC50 (HBE assay) is over 6.00. Further, under setting [2], the Emax was over 60%. Regarding `Cc1cccc(C)c1-c1cc2nc(n1)NS(=O)(=O)c1cccc(c1)C(=O)N(CC(=O)NC1CCCC1)[C@H](CC(C)(C)C)CO2` [Compound 198], the activation at 10 µM under setting [5] is over 600%. Turning to `Cc1cccc(C)c1-c1cc2nc(n1)NS(=O)(=O)c1cccc(c1)C(=O)N(Cc1ncc(N3CCC(C)(F)CC3)cn1)[C@H](CC(C)(C)C)CO2` [Compound 1442], the activation at 10 µM (HBE assay, 10 μM, read-out: HBE Activity at 10 μM (%)) is over 60%. For `Cc1cccc(C)c1-c1cc2nc(n1)NS(=O)(=O)c1cccc(c1)C(=O)N(Cc1cccc(N3CCC[C@@H]3CO)n1)[C@H](CC(C)(C)C)CO2` [Compound 280], the negative-log EC50 (pEC50) (Table 12) was over 6.00. Further, the Emax under setting [7] is over 60%. In the case of `Cc1cccc(C)c1-c1cc2nc(n1)NS(=O)(=O)c1cccc(c1)C(=O)N(Cc1cccc(C3CCCC3)n1)[C@H](CC(C)(C)C)CO2` [Compound 598], the activation at 10 µM under setting [3] is over 60%. Also, for the setting “Table 11”, the pEC50 was over 6.00. Moreover, under setting [6], the Emax is over 60%.

Regarding `Cc1cccc(C)c1-c1cc2nc(n1)NS(=O)(=O)c1cccc(c1)C(=O)N(Cc1ncc(N3CC(C)(C)CC3=O)cn1)[C@H](CC(C)(C)C)CO2` [Compound 1365], where the note is “HBE assay”, the pEC50 was over 6.00. Also, under setting [2], the Emax was over 60%. Regarding `Cc1cccnc1CNC(=O)CN1C(=O)c2cccc(c2)S(=O)(=O)Nc2nc(cc(-c3c(C)cccc3C)n2)OC[C@H]1CC(C)(C)C` [Compound 215], the activation at 10 µM under setting [1] is over 600%. Take `Cc1cccc(CN2C(=O)c3cccc(c3)S(=O)(=O)Nc3nc(cc(-c4c(C)cccc4C)n3)OC[C@H]2CC(C)(C)C)n1` [Compound 465]: the pEC50 (Table 11) was over 6.00. Moreover, the Emax under setting [6] was over 60%. As to `Cc1cccc(C)c1-c1cc2nc(n1)NS(=O)(=O)c1cccc(c1)C(=O)N(Cc1cccc(-c3c[nH]nc3C)c1)[C@H](CC(C)(C)C)CO2` [Compound 312], under setting [8], the activation at 10 µM was over 60%.

As for `Cc1cccc(C)c1-c1cc2nc(n1)NS(=O)(=O)c1cccc(c1)C(=O)N(Cc1ccc([Si](C)(C)C)cc1)[C@H](CC(C)(C)C)CO2` [Compound 795], the activation at 10 µM under setting [8] was over 60%. Same read-out and setting: under `Cc1cccc(C)c1-c1cc2nc(n1)NS(=O)(=O)c1cccc(c1)C(=O)N(Cc1cn(C)nc1C)[C@H](CC(C)(C)C)CO2` [Compound 822] stands over 60%; under `Cc1cccc(C)c1-c1cc2nc(n1)NS(=O)(=O)c1cccc(c1)C1Oc3ccc4cccnc4c3CN1[C@H](CC(C)(C)C)CO2` (some centres unmarked) [Compound 751], over 60%.

Consider `Cc1cccc(C)c1-c1cc2nc(n1)NS(=O)(=O)c1cccc(c1)C(=O)N(Cc1ncc(N3CCC4(COC4)C3)cn1)[C@H](CC(C)(C)C)CO2` [Compound 580], for which the pEC50 (Table 12) was over 6.00. In addition, the Emax under setting [7] is over 60%. With `Cc1cccc(C)c1-c1cc2nc(n1)NS(=O)(=O)c1cccc(c1)C(=O)N(Cc1cncc(N3CCC[C@H]3C3CC3)n1)[C@H](CC1CC1)CO2` [Compound 1502], for the setting “HBE EC50 (μM), HBE assay”, the EC50 is under 1 µM. Under “read-out: HBE Activity at 10 μM (%)”, the activation at 10 µM was over 60%. Besides, the Emax (read-out: HBE Max activity (%)) is over 60%.

Take `Cc1cccc(C)c1-c1cc2nc(n1)NS(=O)(=O)c1cccc(c1)C(=O)N(CCc1ccc(C3CCCCC3)cn1)[C@H](CC(C)(C)C)CO2` [Compound 112, (11R)-12-[2-(5-Cyclohexyl-2-pyridyl)ethyl]-6-(2,6-dimethylphenyl)-11-(2,2-dimethylpropyl)-2,2-dioxo-9-oxa-2λ^6-thia-3,5,12,19-tetrazatricyclo[12.3.1.14,8]nonadeca-1(18),4(19),5,7,14,16-hexaen-13-one]: the pEC50 (Table 11) is over 6.00. In addition, the Emax under setting [6] is over 60%. Regarding `COc1cncc(CN2C(=O)c3cccc(c3)S(=O)(=O)Nc3nc(cc(-c4c(C)cccc4C)n3)OC[C@H]2CC(C)(C)C)n1` [Compound 884], the pEC50 (Table 11) is over 6.00. For the same compound, the Emax under setting [6] was over 60%. Regarding `Cc1cccc(C)c1-c1cc2nc(n1)NS(=O)(=O)c1cccc(c1)C(=O)N(Cc1cccc(-n3ccc(C(C)(C)C)n3)n1)[C@H](CC(C)(C)C)CO2` [Compound 470], under setting [4], the Emax was over 60%. For the compound `Cc1cccc(C)c1-c1cc2nc(n1)NS(=O)(=O)c1cccc(c1)C(=O)N(Cc1cncc(N(C)C3CCC34CCC4)n1)[C@H](CC(C)(C)C)CO2` (some centres unmarked) [Compound 438], the pEC50 (Table 12) is over 6.00. In the case of `Cc1cccc(C)c1-c1cc2nc(n1)NS(=O)(=O)c1cccc(c1)C(=O)N(Cc1ncccc1-c1c[nH]nc1C1CC1)[C@H](CC(C)(C)C)CO2` [Compound 300], under setting [8], the activation at 10 µM is over 60%.

As to `CC[C@@H](C)[C@@H]1COc2cc(-c3c(C)cccc3C)nc(n2)NS(=O)(=O)c2cccc(c2)C(=O)N1Cc1ncc(OC(C)C)cn1` [Compound 1473], the pEC50 (HBE assay) was over 6.00. The Emax under setting [2] was over 60%.
